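Compound exposure: 48 hours, 5 concentrations, 96-well plates. Abbreviation: GI50, concentration required for 50% inhibition of growth. TGI marks complete inhibition of growth.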
Experiments:
Experiment in all cases: NCI-60 cell line screen, 48 h
[1] = tested on: 786-0 renal
[2] = tested on: SR leukemia
[3] = tested on: HCT-116 colon
[4] = tested on: SK-MEL-2 melanoma
[5] = tested on: OVCAR-5 ovarian
[6] = tested on: OVCAR-8 ovarian
[7] = tested on: SK-OV-3 ovarian
[8] = tested on: SK-MEL-28 melanoma
[9] = tested on: UACC-257 melanoma
[10] = tested on: RXF 393 renal
[11] = tested on: COLO 205 colon
[12] = tested on: SF-539 CNS
[13] = tested on: MDA-N
[14] = tested on: NCI/ADR-RES ovarian
[15] = tested on: MCF7 breast
[16] = tested on: HS 578T breast

| Structure (SMILES) | TGI [1] | TGI [2] | TGI [3] | TGI [4] | TGI [5] | TGI [6] | TGI [7] | TGI [8] | TGI [9] | TGI [10] | TGI [11] | TGI [12] | TGI [13] | TGI [14] | TGI [15] | TGI [16] | GI50 [5] | GI50 [14] | GI50 [9] | GI50 [15] |
| --- | --- | --- | --- | --- | --- | --- | --- | --- | --- | --- | --- | --- | --- | --- | --- | --- | --- | --- | --- | --- |
| O=C(c1cccs1)N(C(=S)N1CCN(c2ccccn2)CC1)C1CCCCC1 | > 100 µM | > 100 µM | > 100 µM | > 100 µM | > 100 µM | > 100 µM | > 100 µM | > 100 µM | > 100 µM | > 100 µM | 46.8 µM | > 100 µM | – | – | – | – | – | – | – | – |
| CC1=NN(C(=O)c2ccccc2O)C(=O)/C1=C/c1ccccc1O | 44.4 µM | 65.4 µM | > 29.9 µM | > 91.4 µM | > 93.8 µM | 64.4 µM | – | > 100 µM | 30.5 µM | 0.924 µM | > 89.1 µM | 2.45 µM | > 100 µM | > 36.7 µM | > 64.2 µM | – | – | – | – | – |
| COC(=O)C1=C(\c2ccccc2)c2ccccc2C(=O)N(C2CCCCC2)/C=C\1 | > 100 µM | – | 64 µM | 39.2 µM | > 100 µM | > 100 µM | > 100 µM | 39.8 µM | 41.5 µM | – | 28.8 µM | 55.9 µM | > 100 µM | > 100 µM | 77.4 µM | – | – | – | – | – |
| C#C[C@]1(O)CCC2C3CCc4cc(Oc5nc(F)nc(-c6c7cc8ccccc8cc7c7n6CCS7)n5)ccc4C3CCC21C (stereo partly specified) | > 100 µM | – | > 100 µM | 89.7 µM | – | > 100 µM | > 100 µM | > 100 µM | > 100 µM | > 100 µM | 42.2 µM | > 100 µM | – | – | – | – | – | – | – | – |
| Cn1c(Nc2ccccc2)c(C=Nc2ccccc2)c(=O)n(C)c1=O | > 100 µM | – | > 100 µM | > 100 µM | > 100 µM | > 100 µM | > 100 µM | > 100 µM | > 100 µM | > 100 µM | – | > 100 µM | > 100 µM | > 100 µM | > 100 µM | – | – | – | – | – |
| [N-]=[NH+]CC(=O)OC(COCc1ccccc1)COCc1ccccc1 | > 100 µM | > 100 µM | > 100 µM | > 100 µM | > 100 µM | – | > 100 µM | > 100 µM | > 100 µM | > 100 µM | > 100 µM | – | – | – | > 100 µM | – | – | – | – | – |
| Nc1cn(Cc2ccccc2)c2nc(/C=C3/C=CC=CC3=O)c(O)n12 | > 100 µM | – | > 100 µM | > 100 µM | > 100 µM | > 100 µM | > 100 µM | > 100 µM | > 100 µM | > 100 µM | > 100 µM | > 100 µM | > 100 µM | > 100 µM | > 100 µM | > 100 µM | – | – | – | – |
| COC(=O)C1[C@@H](C(=O)OC)C12C=Cc1ccccc1C=C2 (stereo partly specified) | > 100 µM | > 100 µM | > 100 µM | > 100 µM | > 100 µM | > 100 µM | > 100 µM | > 100 µM | > 100 µM | > 100 µM | > 100 µM | > 100 µM | – | – | – | – | – | – | – | – |
| COC(=O)c1ccccc1/C=C1\Cc2cc(C)cc(C)c2C1=O | > 100 µM | > 100 µM | > 100 µM | > 100 µM | > 100 µM | > 100 µM | – | > 100 µM | > 100 µM | > 100 µM | – | > 100 µM | > 100 µM | – | > 100 µM | > 100 µM | – | – | – | – |
| COc1cc(C2C3=C(COC3=O)Oc3cc4c(cc32)OCO4)ccc1OC(C)=O (stereo unspecified) | > 100 µM | – | > 100 µM | > 100 µM | > 100 µM | > 56.4 µM | 0.909 µM | > 100 µM | > 100 µM | > 100 µM | 0.602 µM | 0.749 µM | – | > 100 µM | > 100 µM | 0.686 µM | – | – | – | – |
| CCOC(=O)C(NC(=O)CC(C)C)(Nc1ccc(S(=O)(=O)Nc2nc(C)cc(C)n2)cc1)C(F)(F)F (stereo unspecified) | > 100 µM | > 100 µM | > 100 µM | > 100 µM | > 100 µM | > 100 µM | > 100 µM | > 100 µM | > 100 µM | > 100 µM | > 100 µM | > 100 µM | > 100 µM | > 100 µM | – | > 100 µM | – | – | – | – |
| Cc1cc(NCCCCCCCCCC[n+]2c(C)cc(N)c3ccccc32)c2ccccc2n1 | 15.1 µM | – | 11.7 µM | 7.29 µM | 24.7 µM | 15.8 µM | 12.9 µM | 3.82 µM | – | > 100 µM | 1.22 µM | > 100 µM | 3.61 µM | 74.8 µM | > 100 µM | – | – | – | – | – |
| Fc1ccccc1-c1nn2c(C34CC5CC(CC(C5)C3)C4)nnc2s1 | > 100 µM | > 100 µM | > 100 µM | > 100 µM | > 100 µM | > 100 µM | > 100 µM | > 100 µM | > 100 µM | > 100 µM | > 100 µM | > 100 µM | > 100 µM | > 100 µM | – | > 100 µM | – | – | – | – |
| CCN(CC)C(=S)SNCc1ccc(S(N)(=O)=O)cc1 | 28 µM | > 64.6 µM | 27.4 µM | 39.5 µM | 29.9 µM | 28.4 µM | > 86 µM | > 48.9 µM | 33.5 µM | 45.9 µM | 27.7 µM | 32.1 µM | 29 µM | 41.8 µM | – | 50.4 µM | – | – | – | – |
| CCCCCCCCCCCCC(O)C1CCC(C(O)CCCCCCC(O)CCCCCCCC2=CC(C)OC2=O)O1 (stereo unspecified) | > 100 µM | – | > 100 µM | 61.1 µM | > 100 µM | > 100 µM | – | > 100 µM | 85.9 µM | 83 µM | 44.2 µM | – | 71.7 µM | > 100 µM | > 100 µM | – | > 100 µM | 31.5 µM | 12.1 µM | 23.6 µM |
| O=C1CCC2CCC1C2 (stereo unspecified) | > 100 µM | – | > 100 µM | > 100 µM | > 100 µM | > 100 µM | > 100 µM | > 100 µM | > 100 µM | > 100 µM | > 100 µM | > 100 µM | > 100 µM | > 100 µM | > 100 µM | > 100 µM | – | – | – | – |
| COc1cc(C2c3cc4c(cc3OC(Nc3ccccc3)C2C)OCO4)cc(OC)c1OC (stereo unspecified) | > 100 µM | – | > 33 µM | > 100 µM | > 100 µM | > 31.6 µM | > 100 µM | > 100 µM | > 86.2 µM | > 100 µM | 14.5 µM | 0.697 µM | 0.784 µM | > 100 µM | > 100 µM | > 78.5 µM | – | – | – | – |
